Several values for one entry are separate records, joined by “and”; a condition that tells them apart may be missing. Equal entries are not always repeated.
Legend:
[1] = tested on: aberrant membrane NADH oxidase; format: cell-based
NADH oxidase = format: cell-based
NADH-oxidase = settings: in vivo

Compound | CPM NADH hypotoon [1] [CPM] | CPM NADH isotoon [1] [CPM] | CPM iso/hypo [1] | chemiluminescence response after addition of substance and hypotonic NADH (NADH oxidase) | chemiluminescence response after addition of substance and isotonic NADH (NADH oxidase) | isotonic NADH induced lucigenin-dependent chemiluminescence in urine (NADH-oxidase) | induction of aberrant NADH-oxidase (higher counts under isotonic conditions) [1] | CPM (NADH oxidase) | formation of cell surface associated aberrant NADH oxidase (NADH oxidase)
[Cl][Cd][Cl] [CdCl2] | 376 | 114 | 0.30 | – | – | – | – | – | –
C[S+](C)[O-] [DMSO] | – | – | – | significant concentration-dependent increase | not observed | increases | – | – | –
[Cl][Ni][Cl] [NiCl2] | 860 | 913 | 1.06 | – | – | – | suggest induction of aberrant NADH-oxidase | – | –
O=[N+]([O-])[O-].O=[N+]([O-])[O-].[Pb+2] [Pb(NO3)2] | 817 | 1402 | 1.71 | – | – | – | suggest induction of aberrant NADH-oxidase | – | –
C[CH2][Hg][S]c1ccccc1C(=O)[O-].[Na+] [Thimerosal] | 3338 | 2380 | 0.71 | – | – | – | – | – | –
Heparin | – | – | – | significant concentration-dependent increase | not observed | – | – | 17740 CPM and 15303 CPM and 14082 CPM and 10372 CPM and 9192 CPM | –
HgCl2 | 18 | 101 | 5.61 | – | – | – | suggest induction of aberrant NADH-oxidase | – | induces the formation of cell surface associated aberrant NADH oxidase

From patent US20120015390A1, “Methods for the Detection and Treatment of Aberrant Prion Disease” (PROTEA BIOPHARMA N.V., priority 2009, published 2012)
